Results from patent publication US20240092800A1, “USP13 INHIBITORS AND METHODS OF USE THEREOF” (GEORGETOWN UNIVERSITY, priority 2021, published 2024).

Experiments:
[1] = Pharmacokinetics in brain and serum of C57BL/6 mice (UHPLC-MS/MS); assay type: in vivo, mouse; conditions: 10 mg/kg I.P. single dose
Description: Pharmacokinetics Studies. […] Brain and serum samples were collected at 1, 2, 3, 4, 8 and 12 h (n=3 per time point). Animals injected with vehicle (DMSO) were used for background subtraction. Stock solution of the drug (1 mg/mL) and internal standards were prepared in methanol. Intermediate solutions used for the calibrators and control samples were serial-diluted in methanol/water (1:1). Preparation of the calibration curve standards and quality samples (QC) were performed by mixing the intermediate dilutions in blank samples (brain homogenates, serum). […] Serum and brain samples were stored at −80° C. and then thawed to room temperature prior to preparation. The brains were homogenized in MilliQ water (1 mg brain: 10 μL water). Proteins were precipitated in both brain and serum samples by mixing 25 μL aqueous sample with 75 μL internal standard working solution. The mixture was centrifuged at 12,300 g for 5 min. Thereafter, 75 μL of each supernatant and 25 μL of MilliQ water were pipetted into a 96-well PCR plate (Fisher Scientific, Dawsonville, GA,USA).
Briefly, the UHPLC-MS/MS system included an Elute HTG binary gradient UHPLC pump, an Elute column oven and an EVOQ Elite triple quadrupole mass spectrometer (all from Bruker Daltonik GmbH, Bremen, Germany) equipped with an electrospray ionization (ESI) source operating in a positive mode. The samples were injected by use of a PAL auto sampler (CTC Analytics, Zwingen, Switzerland) equipped with a 10-μL sample loop; the samples were kept in a PAL stack cooler for 6 microtiter plates and operating at +6° C. The system was controlled by a Compass 2.0/HyStar 4.0 software (Bruker); the compound screening and quantitation was performed by a TASQ 2.2 data acquisition and processing software (Bruker). The mass spectrometer was supplied by nitrogen and air generated by a Genius 3045 nitrogen/air generator (Peak Scientific Instruments, Inchinnan, Scotland, UK). The ESI parameters were as follows: probe gas flow 50, nebulizer gas flow 60, probe temperature +400° C., cone gas flow 20, cone temperature +350° C., CID gas Ar 1.5 mTorr. The mass spectra were scanned in the MRM mode to find the optimal collision energies for the test compounds and their respective precursor ions.
For chromatographic separation, an YMC-Ultra HT Hydrosphere C18 column (2.0×100 mm, 2 μm particle size) and an YMC-Hydrosphere 2.1×5 mm guard column (YMC Co. Ltd., Kyoto, Japan) were used. The mobile phase A was 10 mM ammonium formate, pH 4.3, in water; the mobile phase B was 10 mM ammonium formate, pH 4.3, in 10% water, 50% acetonitrile and 40% isopropyl alcohol. The mobile phase gradient was as follows (min—A/B%): 0 min—50/50, 0.5 min—50/50, 2.0 min—20/80, 3 min—20/80, 3.1 min—50/50, 4.5 min—50/50. The flow rate was 450 μL/min, and the column temperature was set at 50° C. The sample injection volume was 10 μL.

[2] = tested on: human SHSY5Y neuroblastoma cells; test: Cell viability by MTT and LDH assays; conditions: 5 hours, up to 1 mM concentration
Description: Human SHSY-5Y neuroblastoma cells were cultured in Dulbecco's Modified Eagle's Medium (DMEM) (ThermoFisher Scientific; Waltham, MA) with 10% Fetal Bovine Serum (FBS) (ThermoFisher) and 1% Penicillin-Streptomycin (PenStrep, ThermoFisher) and incubated at 37° C. under atmospheric oxygen concentrations (21%) with 5% CO2. SHSY-5Y cells were cultured in DMEM with Ham's F12 (1:1) (ThermoFisher) with 20% FBS, 1% PenStrep. Cells were plated at a density tailored to reach 70-80% confluence at the beginning of every experiment. SH-SY5Y cells were transiently transfected for 24 hours with human wild-type α-synuclein using Fugene HD transfection reagent (Promega; Madison, WI) before fresh culture media and drug were added.
Cell viability was determined via lactate dehydrogenase assay on culture media, (ThermoFisher) and MTT assay on plated cells (ThermoFisher).

murine tau = test: p-Tau ser396 ELISA in TgA53T mice; assay type: in vivo, mouse; conditions: 10 mg/Kg or 40 mg/Kg I.P. daily for 7 days
Description: (§1) A total of 25 μL soluble protein was incubated overnight at 4° C. with 25 μL of a mixed bead solution. After washing, samples were incubated with 25 μL detection antibody solution for 1.5 hours at room temperature. Streptavidin-phycoerythrin (25 μL) was added to each well containing the 25 μL of detection antibody solution. Samples were then washed and suspended in 100 μL of sheath fluid. Samples were then run on MAGPIX with Xponent software. The median fluorescent intensity (MFI) data were analyzed using a 5-parameter logistic or spline curve-fitting method for calculating analyte concentrations in samples. Specific alpha-synuclein ELISAs were performed on tissue soluble extracts from midbrain lysates in 1XSTEN buffer. The ELISA for USP13 (MyBioSource, Cat # MBS9335287), Human alpha-synuclein (Biolegend, Cat #844101) and specific p-Tau ser396 (Invitrogen, KHB7031) were performed on cell or brain tissue extracts as described above according to manufacturers' protocol.

Nissl+ cells = test: Nissl staining neuron counts in TgA53T mice; assay type: in vivo, mouse; conditions: 40 mg/Kg I.P. daily for 7 days, vs DMSO
Description: Immunohistology. Animals were deeply anesthetized with a mixture of xylazine and ketamine (1:8), washed with normal saline for 1 min and then perfused with 4% paraformaldehyde (PFA) for 15-20 min. Brains were quickly dissected out and immediately stored in 4% PFA for 24 h at 4° C. and then transferred to 30% sucrose at 4° C. for 48 h. Brains were cut using a cryostat microtome into 20 μm thick coronal sections and stored at −20° C.
Nissl and Silver Staining. Nissl staining was performed using FD Cresyl Violet Solution™ Regular Strength (FD NeuroTechnologies, Cat PS102-01) as per manufacturer's instructions. Silver staining was performed using FD NeuroSilver™ (FD NeuroTechnologies, Cat PK301,) as per manufacturer's instructions.

human alpha-synuclein = test: Alpha-synuclein levels via ELISA in alpha-synuclein-transfected SHSY5Y cells; assay type: cell-based; conditions: 5 hours, concentration between 1 and 0.1 nM
Description: Cell lines, transfection, and treatment.
Alpha-Synuclein Enzyme-Linked Immunosorbent Assay (ELISA). ELISAs for total human alpha-synuclein (Millipore; Burlington, MA) were conducted using Milliplexed ELISA. Briefly, Xmap technology uses magnetic microspheres that are internally coded with two fluorescent dyes. Through precise combinations of these two dyes, multiple proteins are simultaneously measured within a sample. Each of these spheres is coated with a specific capture antibody. The capture antibody binds to the detection antibody and a reporter molecule, completing the reaction on the surface of the bead.
as §1

Fc1ccc2nccc(OCc3ccccc3)c2c1 [4-(Benzyloxy)-6-fluoroquinoline]
Brain/serum ratio ([1]; 10 mg/kg): 28.0% | AUC ([1]; brain): 0.1643 µM·h | T1/2 (elimination) ([1]; brain): 2.32 h | AUC ([1]; serum): 0.5994 µM·h | T1/2 (elimination) ([1]; serum): 1.84 h | Tmax ([1]; serum): 1 h | cell death in two viability assays (MTT and LDH) [2]: do not cause cell death | murine tau levels (ptau396 ELISA) (murine tau): no effect | neuron counts (Nissl+ cells) (Nissl+ cells; cortex): significantly increased neuron counts | neuron counts (Nissl+ cells) (Nissl+ cells; striatum): significantly increased neuron counts | neuron counts (Nissl+ cells) (Nissl+ cells; substantia nigra (SN)): significantly increased neuron counts | level of alpha-synuclein via ELISA (human alpha-synuclein): significantly reduce the level of alpha-synuclein
